Measured values from the kinase profiling compilation of Christmann-Franck et al. (2016).

What was measured:
Assay in all cases: radiometric filter-binding kinase assay
[1] = system: AKT1 (human), P31749 [S473D]
[2] = biological target: CHEK2 (human) (UniProt O96017)
[3] = biological target: CSNK1D (human) (UniProt P48730)
[4] = biological target: CaMK1 (human) (UniProt Q14012)
[5] = biological target: DYRK1A (human) (UniProt Q13627)
[6] = biological target: DYRK3 (human) (UniProt O43781)
[7] = biological target: EPHB2 (human) (UniProt P29323)
[8] = biological target: IKBKB (human) (UniProt O14920)
Sequence of IKBKB (human) (O14920 whole entry, looked up): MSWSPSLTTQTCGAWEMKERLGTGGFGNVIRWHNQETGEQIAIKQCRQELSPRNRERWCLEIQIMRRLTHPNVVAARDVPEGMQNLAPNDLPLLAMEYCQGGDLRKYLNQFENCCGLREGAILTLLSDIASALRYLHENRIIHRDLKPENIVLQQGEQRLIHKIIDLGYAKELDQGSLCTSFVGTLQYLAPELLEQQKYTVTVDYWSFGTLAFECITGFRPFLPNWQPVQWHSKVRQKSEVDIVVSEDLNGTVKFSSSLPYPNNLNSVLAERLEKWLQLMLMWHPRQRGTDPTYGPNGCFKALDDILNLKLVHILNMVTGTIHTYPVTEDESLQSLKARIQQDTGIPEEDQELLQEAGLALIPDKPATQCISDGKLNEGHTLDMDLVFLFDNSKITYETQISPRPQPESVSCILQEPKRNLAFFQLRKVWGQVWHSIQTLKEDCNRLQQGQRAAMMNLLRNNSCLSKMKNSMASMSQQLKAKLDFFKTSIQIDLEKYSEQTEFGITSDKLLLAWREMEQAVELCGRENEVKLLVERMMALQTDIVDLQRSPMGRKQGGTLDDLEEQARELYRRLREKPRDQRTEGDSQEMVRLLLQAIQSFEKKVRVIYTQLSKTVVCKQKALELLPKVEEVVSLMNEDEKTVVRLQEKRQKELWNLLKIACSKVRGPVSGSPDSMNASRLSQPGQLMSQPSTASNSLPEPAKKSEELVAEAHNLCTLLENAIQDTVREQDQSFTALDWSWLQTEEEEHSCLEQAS

[9] = biological target: IKBKE (human) (UniProt Q14164)
[10] = biological target: IRAK4 (human) (UniProt Q9NWZ3)
[11] = biological target: JAK2 JH1 JH2 (human) (UniProt O60674)
[12] = biological target: MAP2K1 (human) (UniProt Q02750)
Sequence of MAP2K1 (human) (Q02750 whole entry, looked up): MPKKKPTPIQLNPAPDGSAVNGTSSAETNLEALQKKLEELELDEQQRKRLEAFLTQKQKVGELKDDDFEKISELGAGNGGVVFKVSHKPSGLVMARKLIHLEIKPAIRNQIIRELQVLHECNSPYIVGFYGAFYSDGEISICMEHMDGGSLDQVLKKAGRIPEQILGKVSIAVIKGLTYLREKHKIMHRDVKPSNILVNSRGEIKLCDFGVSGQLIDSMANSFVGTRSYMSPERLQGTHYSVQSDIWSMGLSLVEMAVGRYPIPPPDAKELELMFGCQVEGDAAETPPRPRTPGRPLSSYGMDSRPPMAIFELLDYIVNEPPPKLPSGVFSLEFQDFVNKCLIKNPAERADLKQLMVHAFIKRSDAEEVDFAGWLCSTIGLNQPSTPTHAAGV

[13] = biological target: MAP3K11 (human) (UniProt Q16584)
Sequence of MAP3K11 (human) (Q16584 whole entry, looked up): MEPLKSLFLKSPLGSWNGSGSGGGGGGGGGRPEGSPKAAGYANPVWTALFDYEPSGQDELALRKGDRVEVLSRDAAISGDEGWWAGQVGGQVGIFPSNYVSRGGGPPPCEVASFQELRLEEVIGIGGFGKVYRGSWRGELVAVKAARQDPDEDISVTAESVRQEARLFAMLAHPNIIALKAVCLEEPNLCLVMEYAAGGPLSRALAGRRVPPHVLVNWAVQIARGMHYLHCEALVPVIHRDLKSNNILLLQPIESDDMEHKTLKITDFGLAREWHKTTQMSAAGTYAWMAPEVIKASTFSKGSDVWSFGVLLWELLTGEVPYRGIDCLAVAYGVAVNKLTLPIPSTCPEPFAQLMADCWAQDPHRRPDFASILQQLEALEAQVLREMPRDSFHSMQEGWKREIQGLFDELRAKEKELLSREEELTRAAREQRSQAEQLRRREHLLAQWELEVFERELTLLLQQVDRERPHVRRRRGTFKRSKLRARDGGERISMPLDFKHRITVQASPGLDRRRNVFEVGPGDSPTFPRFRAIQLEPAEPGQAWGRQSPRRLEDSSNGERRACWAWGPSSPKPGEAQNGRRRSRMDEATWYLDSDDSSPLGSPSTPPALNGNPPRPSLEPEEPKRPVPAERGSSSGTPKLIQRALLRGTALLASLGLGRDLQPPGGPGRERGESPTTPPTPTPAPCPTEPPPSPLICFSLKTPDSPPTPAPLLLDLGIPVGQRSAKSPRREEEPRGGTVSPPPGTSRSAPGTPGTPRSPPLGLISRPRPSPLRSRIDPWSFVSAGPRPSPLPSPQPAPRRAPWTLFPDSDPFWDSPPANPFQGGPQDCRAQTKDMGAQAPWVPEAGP

[14] = biological target: MAPK14 (human) (UniProt Q16539)
[15] = biological target: MAPK3 (human) (UniProt P27361)
[16] = biological target: MAPK8 (human) (UniProt P45983)
Sequence of MAPK8 (human) (P45983 whole entry, looked up): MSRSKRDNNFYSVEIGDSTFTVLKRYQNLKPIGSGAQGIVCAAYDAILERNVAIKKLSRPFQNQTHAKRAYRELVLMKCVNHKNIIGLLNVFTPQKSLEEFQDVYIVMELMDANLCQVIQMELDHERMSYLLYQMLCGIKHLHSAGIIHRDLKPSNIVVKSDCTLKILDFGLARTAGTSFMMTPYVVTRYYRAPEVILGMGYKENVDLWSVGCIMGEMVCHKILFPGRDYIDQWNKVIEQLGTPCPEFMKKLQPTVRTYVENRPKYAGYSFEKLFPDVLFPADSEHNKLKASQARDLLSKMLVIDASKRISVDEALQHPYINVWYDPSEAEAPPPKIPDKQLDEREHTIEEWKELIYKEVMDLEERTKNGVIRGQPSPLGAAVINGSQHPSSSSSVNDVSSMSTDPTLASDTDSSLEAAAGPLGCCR

[17] = biological target: MAPK9 (human) (UniProt P45984)
[18] = biological target: MAPKAPK2 (human) (UniProt P49137)
[19] = biological target: MARK1 (human) (UniProt Q9P0L2)
Sequence of MARK1 (human) (Q9P0L2 whole entry, looked up): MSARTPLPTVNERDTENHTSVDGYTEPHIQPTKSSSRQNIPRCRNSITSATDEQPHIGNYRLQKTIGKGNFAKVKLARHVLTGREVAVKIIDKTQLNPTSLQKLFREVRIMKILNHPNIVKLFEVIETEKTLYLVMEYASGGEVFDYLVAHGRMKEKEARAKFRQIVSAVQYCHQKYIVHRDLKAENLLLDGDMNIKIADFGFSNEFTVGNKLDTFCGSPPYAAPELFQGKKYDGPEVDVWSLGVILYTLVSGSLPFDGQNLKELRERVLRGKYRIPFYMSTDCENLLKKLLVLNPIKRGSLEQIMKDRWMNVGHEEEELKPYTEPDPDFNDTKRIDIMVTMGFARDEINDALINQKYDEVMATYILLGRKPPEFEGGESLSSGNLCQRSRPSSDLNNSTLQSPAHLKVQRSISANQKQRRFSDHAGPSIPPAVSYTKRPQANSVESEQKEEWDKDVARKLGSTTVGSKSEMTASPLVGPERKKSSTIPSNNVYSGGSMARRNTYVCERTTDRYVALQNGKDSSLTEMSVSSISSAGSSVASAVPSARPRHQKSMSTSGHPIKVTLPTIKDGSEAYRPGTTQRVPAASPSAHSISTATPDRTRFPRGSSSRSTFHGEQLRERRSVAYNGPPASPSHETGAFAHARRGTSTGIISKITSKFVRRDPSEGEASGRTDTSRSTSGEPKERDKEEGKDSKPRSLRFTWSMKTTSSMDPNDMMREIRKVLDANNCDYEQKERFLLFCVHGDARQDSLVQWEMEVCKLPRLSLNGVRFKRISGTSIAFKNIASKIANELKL

[20] = biological target: MARK2 (human) (UniProt Q7KZI7)
[21] = biological target: MARK3 (human) (UniProt P27448)
[22] = biological target: MKNK1 (human) (UniProt Q9BUB5)
Sequence of MKNK1 (human) (Q9BUB5 whole entry, looked up): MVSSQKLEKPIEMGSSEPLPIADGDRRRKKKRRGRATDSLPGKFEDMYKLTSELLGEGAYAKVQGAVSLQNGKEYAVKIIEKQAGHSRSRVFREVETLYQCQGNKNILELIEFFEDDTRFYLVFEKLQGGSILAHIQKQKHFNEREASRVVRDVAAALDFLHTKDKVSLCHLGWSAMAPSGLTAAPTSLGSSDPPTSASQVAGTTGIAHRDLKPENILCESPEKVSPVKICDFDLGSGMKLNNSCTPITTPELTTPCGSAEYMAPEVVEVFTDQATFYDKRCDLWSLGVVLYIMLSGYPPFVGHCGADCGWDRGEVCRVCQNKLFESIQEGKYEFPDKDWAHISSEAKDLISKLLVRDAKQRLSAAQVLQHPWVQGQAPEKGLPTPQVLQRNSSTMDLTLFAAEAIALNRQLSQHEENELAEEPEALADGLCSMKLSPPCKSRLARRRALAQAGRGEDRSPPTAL

[23] = biological target: MKNK2 (human) (UniProt Q9HBH9)
[24] = biological target: NEK2 (human) (UniProt P51955)
[25] = biological target: NEK6 (human) (UniProt Q9HC98)
[26] = biological target: NTRK1 (human) (UniProt P04629)
[27] = biological target: NUAK1 (human) (UniProt O60285)
[28] = biological target: PAK4 (human) (UniProt O96013)
[29] = biological target: PIM1 (human) (UniProt P11309)
Sequence of PIM1 (human) (P11309 whole entry, looked up): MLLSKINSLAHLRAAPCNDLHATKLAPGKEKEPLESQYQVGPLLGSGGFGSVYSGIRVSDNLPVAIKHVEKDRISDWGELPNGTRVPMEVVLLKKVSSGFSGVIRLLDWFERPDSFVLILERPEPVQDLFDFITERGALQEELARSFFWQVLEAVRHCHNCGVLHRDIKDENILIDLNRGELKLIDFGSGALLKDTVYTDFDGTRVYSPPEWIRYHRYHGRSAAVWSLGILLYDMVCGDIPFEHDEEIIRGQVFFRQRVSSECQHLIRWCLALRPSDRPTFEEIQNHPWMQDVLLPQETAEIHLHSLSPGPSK

[30] = biological target: RPS6KA1 KD1 KD2 (human) (UniProt Q15418)
[31] = system: RPS6KB1 (human), P23443 [T412E]
Sequence of RPS6KB1 (human), P23443 [T412E] (P23443 whole entry T412E, looked up): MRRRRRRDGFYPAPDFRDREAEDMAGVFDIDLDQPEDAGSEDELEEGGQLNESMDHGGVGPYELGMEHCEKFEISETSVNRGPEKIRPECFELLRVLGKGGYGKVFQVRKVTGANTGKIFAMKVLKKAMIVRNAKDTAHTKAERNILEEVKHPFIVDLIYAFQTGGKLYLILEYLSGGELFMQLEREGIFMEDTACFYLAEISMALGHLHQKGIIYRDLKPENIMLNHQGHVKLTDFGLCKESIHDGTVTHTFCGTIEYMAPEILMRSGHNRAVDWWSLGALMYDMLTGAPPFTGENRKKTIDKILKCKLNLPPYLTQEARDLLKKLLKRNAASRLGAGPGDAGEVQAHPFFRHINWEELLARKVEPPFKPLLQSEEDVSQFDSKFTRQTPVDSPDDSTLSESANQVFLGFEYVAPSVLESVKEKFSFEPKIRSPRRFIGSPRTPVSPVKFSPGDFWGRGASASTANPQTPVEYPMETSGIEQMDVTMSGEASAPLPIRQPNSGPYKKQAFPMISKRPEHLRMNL

[32] = biological target: STK11 CAB39 STRADA (human) (UniProt Q9Y376+Q7RTN6+Q15831)
[33] = biological target: STK3 (human) (UniProt Q13188)
[34] = biological target: TBK1 (human) (UniProt Q9UHD2)
[35] = biological target: TTK (human) (UniProt P33981)

Sequence of CSNK1D (human) (P48730 whole entry, looked up): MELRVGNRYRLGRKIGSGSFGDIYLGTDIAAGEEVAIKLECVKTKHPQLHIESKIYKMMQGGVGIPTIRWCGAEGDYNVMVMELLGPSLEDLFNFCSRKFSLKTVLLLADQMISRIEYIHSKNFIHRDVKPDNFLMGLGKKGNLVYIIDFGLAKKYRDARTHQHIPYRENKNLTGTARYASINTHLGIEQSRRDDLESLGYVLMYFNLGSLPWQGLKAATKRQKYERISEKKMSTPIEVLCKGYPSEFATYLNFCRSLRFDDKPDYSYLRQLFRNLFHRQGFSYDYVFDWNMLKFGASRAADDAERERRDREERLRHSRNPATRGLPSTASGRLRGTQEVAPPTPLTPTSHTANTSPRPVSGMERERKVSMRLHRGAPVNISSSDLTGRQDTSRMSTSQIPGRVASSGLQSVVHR

residual activity ([1]; compound 0.1 µM): 109%
residual activity ([1]; compound 1.0 µM): 97%
residual activity ([1]; compound 10.0 µM): 98%
residual activity ([2]; compound 0.1 µM): 112%
residual activity ([2]; compound 1.0 µM): 51%
residual activity ([2]; compound 10.0 µM): 9%
residual activity ([3]; compound 0.1 µM): 96%
residual activity ([3]; compound 1.0 µM): 96%
residual activity ([3]; compound 10.0 µM): 92%
residual activity ([4]; compound 0.1 µM): 96%
residual activity ([4]; compound 1.0 µM): 97%
residual activity ([4]; compound 10.0 µM): 68%
residual activity ([5]; compound 0.1 µM): 80%
residual activity ([5]; compound 1.0 µM): 31%
residual activity ([5]; compound 10.0 µM): 8%
residual activity ([6]; compound 0.1 µM): 111%
residual activity ([6]; compound 10.0 µM): 40%
residual activity ([7]; compound 0.1 µM): 99%
residual activity ([7]; compound 1.0 µM): 110%
residual activity ([7]; compound 10.0 µM): 111%
residual activity ([8]; compound 0.1 µM): 115%
residual activity ([8]; compound 1.0 µM): 109%
residual activity ([8]; compound 10.0 µM): 101%
residual activity ([9]; compound 0.1 µM): 98%
residual activity ([9]; compound 1.0 µM): 95%
residual activity ([9]; compound 10.0 µM): 44%
residual activity ([10]; compound 0.1 µM): 94%
residual activity ([10]; compound 1.0 µM): 62%
residual activity ([10]; compound 10.0 µM): 24%
residual activity ([11]; compound 0.1 µM): 101%
residual activity ([11]; compound 1.0 µM): 102%
residual activity ([11]; compound 10.0 µM): 79%
residual activity ([12]; compound 0.1 µM): 101%
residual activity ([12]; compound 1.0 µM): 97%
residual activity ([12]; compound 10.0 µM): 69%
residual activity ([13]; compound 0.1 µM): 114%
residual activity ([13]; compound 1.0 µM): 102%
residual activity ([13]; compound 10.0 µM): 73%
residual activity ([14]; compound 0.1 µM): 94%
residual activity ([14]; compound 1.0 µM): 94%
residual activity ([14]; compound 10.0 µM): 83%
residual activity ([15]; compound 0.1 µM): 111%
residual activity ([15]; compound 1.0 µM): 108%
residual activity ([16]; compound 0.1 µM): 96%
residual activity ([16]; compound 1.0 µM): 93%
residual activity ([16]; compound 10.0 µM): 92%
residual activity ([17]; compound 0.1 µM): 123%
residual activity ([17]; compound 1.0 µM): 111%
residual activity ([17]; compound 10.0 µM): 107%
residual activity ([18]; compound 0.1 µM): 24%
residual activity ([18]; compound 1.0 µM): 9%
residual activity ([18]; compound 10.0 µM): 2%
residual activity ([19]; compound 0.1 µM): 116%
residual activity ([19]; compound 1.0 µM): 107%
residual activity ([19]; compound 10.0 µM): 93%
residual activity ([20]; compound 0.1 µM): 116%
residual activity ([20]; compound 1.0 µM): 113%
residual activity ([20]; compound 10.0 µM): 95%
residual activity ([21]; compound 0.1 µM): 113%
residual activity ([21]; compound 1.0 µM): 115%
residual activity ([22]; compound 0.1 µM): 105%
residual activity ([22]; compound 1.0 µM): 103%
residual activity ([22]; compound 10.0 µM): 83%
residual activity ([23]; compound 0.1 µM): 111%
residual activity ([23]; compound 10.0 µM): 26%
residual activity ([24]; compound 0.1 µM): 108%
residual activity ([24]; compound 1.0 µM): 99%
residual activity ([24]; compound 10.0 µM): 88%
residual activity ([25]; compound 0.1 µM): 109%
residual activity ([25]; compound 1.0 µM): 96%
residual activity ([25]; compound 10.0 µM): 66%
residual activity ([26]; compound 1.0 µM): 100%
residual activity ([26]; compound 10.0 µM): 83%
residual activity ([27]; compound 1.0 µM): 102%
residual activity ([27]; compound 10.0 µM): 58%
residual activity ([28]; compound 0.1 µM): 103%
residual activity ([28]; compound 1.0 µM): 88%
residual activity ([28]; compound 10.0 µM): 82%
residual activity ([29]; compound 0.1 µM): 93%
residual activity ([29]; compound 1.0 µM): 58%
residual activity ([29]; compound 10.0 µM): 17%
residual activity ([30]; compound 0.1 µM): 106%
residual activity ([30]; compound 1.0 µM): 100%
residual activity ([30]; compound 10.0 µM): 76%
residual activity ([31]; compound 0.1 µM): 99%
residual activity ([31]; compound 1.0 µM): 95%
residual activity ([31]; compound 10.0 µM): 80%
residual activity ([32]; compound 0.1 µM): 118%
residual activity ([32]; compound 1.0 µM): 103%
residual activity ([32]; compound 10.0 µM): 97%
residual activity ([33]; compound 0.1 µM): 131%
residual activity ([33]; compound 10.0 µM): 100%
residual activity ([34]; compound 0.1 µM): 110%
residual activity ([34]; compound 1.0 µM): 87%
residual activity ([34]; compound 10.0 µM): 96%
residual activity ([35]; compound 0.1 µM): 117%
residual activity ([35]; compound 1.0 µM): 101%
residual activity ([35]; compound 10.0 µM): 84%
SMILES: Cc1ccc(-c2ccc3c(ccc4sc5c(c43)NC[C@@H](C)NC5=O)n2)cn1
